The values that follow come from ChEMBL document CHEMBL4346703, “Structure Overhaul Affords a Potent Purine PI3Kδ Inhibitor with Improved Tolerability” (J Med Chem, 2019).

The target of data set [1] is PI3-kinase p110-alpha/p85-alpha (Homo sapiens, UniProt P42336). The data set can be described thus: Inhibition of N-terminal His6-tagged recombinant full length human p110alpha/untagged recombinant full length human p85alpha expressed in baculovirus infected Sf21 insect cells using PIP2 as substrate preincubated for 15 mins followed by substrate addition and measured after 1 hr by HTRF assay. (TR-FRET usually uses a lanthanide donor and a delayed reading to cut background.)

Data set [2] is described as follows: Inhibition of adenosine transporter in human HeLa cells assessed as reduction in [3H]adenosine uptake preincubated for 30 mins followed by [3H]adenosine addition and measured after 60 mins. The format is ADME, cell-based.
Data set [3] is described as follows: Toxicity in Beagle dog assessed as decrease in basophil count at 25 mg/kg administered for 8 days. The class given is organism-based, Canis lupus familiaris. The settings on record: in vivo, 192 h.
The nature of data set [4]: fAUC in rat at 750 mg/kg administered for 4 days. The format is ADME, organism-based. The settings on record: in vivo, 96 h.
A short description of data set [5]: Intrinsic clearance in rat microsomes. The class given is ADME, Microsome.
Data set [6] in a line: Protein binding in Wistar Han rat plasma. The class given is ADME, cell-free. The conditions noted are these: read-out: PPB (converted).
Data set [7] in a line: Intrinsic clearance in Wistar Han rat at 0.5 mg/kg, iv or 1 mg/kg, po. The format is ADME, organism-based. The conditions noted are these: in vivo.
The target in data set [8] is T1, Phosphatidylinositol 4,5-bisphosphate 3-kinase catalytic subunit delta isoform (Homo sapiens, UniProt O00329).
T1 sequence (O00329 whole entry): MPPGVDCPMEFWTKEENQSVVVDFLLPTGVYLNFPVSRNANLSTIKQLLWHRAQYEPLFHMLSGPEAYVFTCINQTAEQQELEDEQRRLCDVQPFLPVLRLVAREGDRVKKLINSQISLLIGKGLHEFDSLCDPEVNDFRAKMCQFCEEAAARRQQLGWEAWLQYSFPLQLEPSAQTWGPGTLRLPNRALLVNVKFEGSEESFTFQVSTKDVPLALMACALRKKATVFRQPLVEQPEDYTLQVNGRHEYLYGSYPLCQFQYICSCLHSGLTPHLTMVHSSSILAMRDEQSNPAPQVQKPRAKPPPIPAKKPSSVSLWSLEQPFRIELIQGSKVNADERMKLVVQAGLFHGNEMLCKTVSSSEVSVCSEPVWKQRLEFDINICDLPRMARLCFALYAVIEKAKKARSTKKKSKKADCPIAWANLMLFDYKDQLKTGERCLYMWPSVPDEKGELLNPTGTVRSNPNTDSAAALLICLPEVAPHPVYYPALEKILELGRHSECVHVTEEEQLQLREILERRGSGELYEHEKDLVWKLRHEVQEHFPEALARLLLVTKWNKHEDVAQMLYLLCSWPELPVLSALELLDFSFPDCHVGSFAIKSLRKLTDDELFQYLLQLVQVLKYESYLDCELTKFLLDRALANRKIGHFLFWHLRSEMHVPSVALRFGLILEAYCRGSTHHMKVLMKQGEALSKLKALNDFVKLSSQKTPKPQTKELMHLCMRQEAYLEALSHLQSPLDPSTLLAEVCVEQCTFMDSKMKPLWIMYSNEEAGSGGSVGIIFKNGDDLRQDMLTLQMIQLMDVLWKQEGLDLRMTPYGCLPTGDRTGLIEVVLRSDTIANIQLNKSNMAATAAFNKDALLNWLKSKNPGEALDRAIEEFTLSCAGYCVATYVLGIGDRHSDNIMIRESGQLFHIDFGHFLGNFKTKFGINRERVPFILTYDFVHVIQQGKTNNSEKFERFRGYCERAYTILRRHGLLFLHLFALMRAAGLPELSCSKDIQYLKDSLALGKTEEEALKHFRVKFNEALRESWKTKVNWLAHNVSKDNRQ
The data set can be described thus: Inhibition of PI3Kdelta in human Ramos cells assessed as reduction in anti-IgM-antibody-induced phosphorylation of AKT at Ser473 residue preincubated for 20 mins followed by anti-IgM antibody stimulation and measured after 30 mins by alphascreen assay. The class given is cell-based. A general note: Alpha assays give light when donor and acceptor beads are brought close together.

Data set [9] deals with Dual 3',5'-cyclic-AMP and -GMP phosphodiesterase 11A (Homo sapiens, UniProt Q9HCR9). The data set can be described thus: Inhibition of PDE11 (unknown origin).
Data set [10] concerns the target High affinity cGMP-specific 3',5'-cyclic phosphodiesterase 9A (Homo sapiens, UniProt O76083). In words: Inhibition of PDE9 (unknown origin).
Data set [11] in a line: Half-life in Wistar Han rat. The format is ADME. The conditions noted are these: in vivo.
Data set [12] has as its target cGMP-specific 3',5'-cyclic phosphodiesterase (Homo sapiens, UniProt O76074). In words: Inhibition of PDE5 (unknown origin).
Data set [13] can be described thus: Lipophilicity, log D of the compound. The settings on record: octanol/water. The class given is physicochemical.
The nature of data set [14]: Intrinsic clearance in rat hepatocytes. The class given is ADME, cell-based, Hepatocyte. The settings on record: read-out: CLH.
Data set [15] is described as follows: fAUC in telemetered rat at 60 mg/kg. The format is ADME, organism-based. The conditions noted are these: in vivo.
Data set [16] can be described thus: fAUC in Beagle dog at 25 mg/kg administered for 8 days. The format is ADME, organism-based, Canis lupus familiaris. The settings on record: in vivo, 192 h.
Data set [17] can be described thus: Intrinsic clearance in Beagle dog at 0.25 mg/kg, iv or 0.5 mg/kg, po. The format is ADME, organism-based, Canis lupus familiaris. The settings on record: in vivo.
The next data set is filed under the species Homo sapiens. In words: Selectivity ratio of IC50 for N-terminal His6-tagged recombinant full length human p110alpha/untagged recombinant full length human p85alpha expressed in baculovirus infected Sf21 insect cells to IC50 for N-terminal His6-tagged recombinant full length human p110delta/untagged recombinant full length human p85alpha expressed in baculovirus infected Sf21 insect cells.

A short description of data set [18]: Solubility of the compound. The class given is physicochemical.
A further data set concerns the target Phosphodiesterase 1 (Homo sapiens, UniProt P54750+Q01064+Q14123). The data set can be described thus: Inhibition of PDE1 (unknown origin). The format is protein assay.

A word on the IC50: it is the midpoint of a concentration-inhibition curve. The term half-life denotes how long it takes for the measured level to halve. A lower half-life goes with rapid decline. The logD is lipophilicity at a set pH, counting ionised and neutral species. A low value points to a more hydrophilic compound. Usually solubility stands for the concentration that dissolves in the medium under given conditions. A higher solubility goes with much dissolved substance.

PI3-kinase p110-alpha/p85-alpha, sequence (P27986 whole entry): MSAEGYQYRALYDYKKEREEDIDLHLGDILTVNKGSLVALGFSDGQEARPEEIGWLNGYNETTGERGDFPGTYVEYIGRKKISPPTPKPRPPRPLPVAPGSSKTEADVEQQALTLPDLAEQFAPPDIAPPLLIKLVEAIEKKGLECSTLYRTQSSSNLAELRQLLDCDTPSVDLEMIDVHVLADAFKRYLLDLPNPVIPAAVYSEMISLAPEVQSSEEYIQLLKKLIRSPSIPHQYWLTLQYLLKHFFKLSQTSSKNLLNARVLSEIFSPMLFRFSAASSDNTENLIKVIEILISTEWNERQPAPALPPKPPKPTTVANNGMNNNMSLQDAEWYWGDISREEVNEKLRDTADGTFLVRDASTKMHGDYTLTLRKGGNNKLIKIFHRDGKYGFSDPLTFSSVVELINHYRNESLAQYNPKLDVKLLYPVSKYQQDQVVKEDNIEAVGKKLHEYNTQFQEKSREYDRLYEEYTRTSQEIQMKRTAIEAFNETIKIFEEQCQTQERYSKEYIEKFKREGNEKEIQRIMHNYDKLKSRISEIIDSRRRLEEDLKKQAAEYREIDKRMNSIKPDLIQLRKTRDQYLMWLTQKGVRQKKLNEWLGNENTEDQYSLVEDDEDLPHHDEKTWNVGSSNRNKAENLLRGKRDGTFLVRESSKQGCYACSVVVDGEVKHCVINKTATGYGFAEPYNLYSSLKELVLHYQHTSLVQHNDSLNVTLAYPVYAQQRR
PI3-kinase p110-alpha/p85-alpha, sequence (P42336 whole entry): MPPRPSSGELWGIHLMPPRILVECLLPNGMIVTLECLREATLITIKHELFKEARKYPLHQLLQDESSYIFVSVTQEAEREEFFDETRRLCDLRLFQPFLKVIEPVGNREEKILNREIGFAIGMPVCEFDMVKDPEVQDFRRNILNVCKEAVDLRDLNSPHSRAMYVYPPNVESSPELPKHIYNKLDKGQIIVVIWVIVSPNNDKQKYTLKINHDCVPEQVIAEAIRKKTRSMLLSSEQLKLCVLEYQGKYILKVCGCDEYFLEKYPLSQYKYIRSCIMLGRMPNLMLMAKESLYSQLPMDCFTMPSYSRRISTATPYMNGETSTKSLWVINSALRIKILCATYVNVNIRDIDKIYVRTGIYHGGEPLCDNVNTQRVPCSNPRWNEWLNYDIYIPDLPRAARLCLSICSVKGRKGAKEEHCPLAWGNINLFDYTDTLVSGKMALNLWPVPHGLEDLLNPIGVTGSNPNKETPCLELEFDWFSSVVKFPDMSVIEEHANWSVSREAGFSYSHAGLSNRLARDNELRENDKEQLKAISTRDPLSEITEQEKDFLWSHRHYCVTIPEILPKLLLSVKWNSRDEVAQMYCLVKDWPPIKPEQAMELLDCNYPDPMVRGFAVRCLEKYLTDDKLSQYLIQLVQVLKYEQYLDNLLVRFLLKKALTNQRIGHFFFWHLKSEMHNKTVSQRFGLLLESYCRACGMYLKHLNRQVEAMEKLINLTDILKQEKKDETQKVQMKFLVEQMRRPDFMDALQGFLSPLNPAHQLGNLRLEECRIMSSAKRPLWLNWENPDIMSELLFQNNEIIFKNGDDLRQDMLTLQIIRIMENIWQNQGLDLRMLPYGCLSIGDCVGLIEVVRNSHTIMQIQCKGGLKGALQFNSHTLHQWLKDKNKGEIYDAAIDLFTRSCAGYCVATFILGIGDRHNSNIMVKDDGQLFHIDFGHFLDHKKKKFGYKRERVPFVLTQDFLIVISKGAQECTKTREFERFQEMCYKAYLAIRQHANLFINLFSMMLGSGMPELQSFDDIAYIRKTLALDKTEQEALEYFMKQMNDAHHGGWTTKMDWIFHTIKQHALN
High affinity cGMP-specific 3',5'-cyclic phosphodiesterase 9A, sequence (O76083 whole entry): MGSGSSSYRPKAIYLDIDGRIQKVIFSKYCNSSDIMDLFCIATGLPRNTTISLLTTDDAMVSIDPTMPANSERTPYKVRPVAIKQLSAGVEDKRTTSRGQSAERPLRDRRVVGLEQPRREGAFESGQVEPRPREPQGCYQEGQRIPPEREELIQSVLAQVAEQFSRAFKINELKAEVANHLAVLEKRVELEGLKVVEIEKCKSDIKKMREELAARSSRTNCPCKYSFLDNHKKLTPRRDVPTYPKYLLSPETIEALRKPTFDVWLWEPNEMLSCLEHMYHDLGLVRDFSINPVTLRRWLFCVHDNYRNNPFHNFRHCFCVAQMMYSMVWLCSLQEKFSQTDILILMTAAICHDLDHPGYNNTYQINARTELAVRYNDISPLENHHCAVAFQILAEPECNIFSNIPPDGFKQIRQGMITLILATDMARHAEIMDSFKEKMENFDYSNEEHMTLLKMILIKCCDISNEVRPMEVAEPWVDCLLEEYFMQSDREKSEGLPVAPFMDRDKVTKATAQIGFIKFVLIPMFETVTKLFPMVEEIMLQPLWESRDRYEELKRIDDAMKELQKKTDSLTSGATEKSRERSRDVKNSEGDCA
Dual 3',5'-cyclic-AMP and -GMP phosphodiesterase 11A, sequence (Q9HCR9 whole entry): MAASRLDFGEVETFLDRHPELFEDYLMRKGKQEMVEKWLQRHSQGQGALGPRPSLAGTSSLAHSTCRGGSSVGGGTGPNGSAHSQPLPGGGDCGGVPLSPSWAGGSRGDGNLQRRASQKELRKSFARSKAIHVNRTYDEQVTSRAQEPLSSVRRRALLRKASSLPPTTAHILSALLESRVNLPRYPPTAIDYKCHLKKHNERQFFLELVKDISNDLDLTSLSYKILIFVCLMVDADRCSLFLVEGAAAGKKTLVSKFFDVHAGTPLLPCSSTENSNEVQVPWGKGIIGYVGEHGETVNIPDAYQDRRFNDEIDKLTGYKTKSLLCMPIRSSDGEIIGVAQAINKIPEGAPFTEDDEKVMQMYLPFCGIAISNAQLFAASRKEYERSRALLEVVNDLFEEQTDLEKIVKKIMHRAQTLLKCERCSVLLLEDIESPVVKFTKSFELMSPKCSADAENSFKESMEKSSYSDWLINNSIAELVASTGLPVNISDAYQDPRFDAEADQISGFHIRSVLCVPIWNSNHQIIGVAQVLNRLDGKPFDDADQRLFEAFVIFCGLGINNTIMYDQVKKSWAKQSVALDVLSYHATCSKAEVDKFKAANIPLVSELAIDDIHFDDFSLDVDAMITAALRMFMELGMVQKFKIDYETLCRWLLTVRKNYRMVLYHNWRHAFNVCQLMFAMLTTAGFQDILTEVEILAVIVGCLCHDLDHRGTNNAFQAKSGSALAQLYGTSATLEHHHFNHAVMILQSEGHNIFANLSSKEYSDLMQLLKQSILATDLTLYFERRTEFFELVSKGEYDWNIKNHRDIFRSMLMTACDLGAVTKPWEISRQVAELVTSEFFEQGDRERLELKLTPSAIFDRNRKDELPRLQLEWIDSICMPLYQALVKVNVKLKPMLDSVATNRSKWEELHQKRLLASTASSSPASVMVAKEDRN

As for `CCn1ncc(-c2nc3c(O[C@H]4CCN(C(=O)C5CCOCC5)C4)ncnc3n2C)c1C`, the IC50 is 0.27 µM in data set [1]; more than 10 µM in data set [2]; 0.062 µM in data set [8]; more than 20 µM in data set [9]; more than 50 µM in data set [10]; more than 50 µM in [12]. Moreover, the IC50 against Phosphodiesterase 1 was more than 50 µM. For the same compound, the Activity entry in data set [3] is “Non-Toxic”. Also, the fAUC was determined as 990 µM·h in data set [4], 61 µM·h in data set [15] and 222 µM·h in [16]. Moreover, the CLint scaled in data set [5] was less than 110 mL/min/kg; in [14], less than 40 mL/min/kg. For the same compound, the fraction unbound in [6] is 0.73. Also, the figures for the CL in [7] and in data set [17] were 126 mL/min/kg and 10 mL/min/kg, respectively. In data set [11], the half-life was 48 min. In addition, the log distribution coefficient (logD) in [13] is 1.1. Besides, in the data set filed under Homo sapiens, the Ratio IC50 came to 69. For the same compound, the solubility in data set [18] is more than 10000 µg/mL.
